Test results as given in ChEMBL document CHEMBL4507300 (2021).

Assays:
[1] = system: Tyrosine-protein kinase ABL1 (Homo sapiens), P00519 [H396P]; settings: Compound concentration 1000.0 nM
[2] = system: Tyrosine-protein kinase ABL1 (Homo sapiens), P00519 [M351T]; settings: Compound concentration 1000.0 nM
[3] = molecular target: Tyrosine-protein kinase ABL1 (Homo sapiens) (UniProt P00519); settings: Compound concentration 1000.0 nM
[4] = molecular target: Atypical kinase COQ8B, mitochondrial (Homo sapiens) (UniProt Q96D53); settings: Compound concentration 1000.0 nM
[5] = molecular target: RAC-gamma serine/threonine-protein kinase (Homo sapiens) (UniProt Q9Y243); settings: Compound concentration 1000.0 nM
[6] = molecular target: 5'-AMP-activated protein kinase catalytic subunit alpha-1 (Homo sapiens) (UniProt Q13131); settings: Compound concentration 1000.0 nM
5'-AMP-activated protein kinase catalytic subunit alpha-1 (Homo sapiens), sequence (Q13131 whole entry, looked up): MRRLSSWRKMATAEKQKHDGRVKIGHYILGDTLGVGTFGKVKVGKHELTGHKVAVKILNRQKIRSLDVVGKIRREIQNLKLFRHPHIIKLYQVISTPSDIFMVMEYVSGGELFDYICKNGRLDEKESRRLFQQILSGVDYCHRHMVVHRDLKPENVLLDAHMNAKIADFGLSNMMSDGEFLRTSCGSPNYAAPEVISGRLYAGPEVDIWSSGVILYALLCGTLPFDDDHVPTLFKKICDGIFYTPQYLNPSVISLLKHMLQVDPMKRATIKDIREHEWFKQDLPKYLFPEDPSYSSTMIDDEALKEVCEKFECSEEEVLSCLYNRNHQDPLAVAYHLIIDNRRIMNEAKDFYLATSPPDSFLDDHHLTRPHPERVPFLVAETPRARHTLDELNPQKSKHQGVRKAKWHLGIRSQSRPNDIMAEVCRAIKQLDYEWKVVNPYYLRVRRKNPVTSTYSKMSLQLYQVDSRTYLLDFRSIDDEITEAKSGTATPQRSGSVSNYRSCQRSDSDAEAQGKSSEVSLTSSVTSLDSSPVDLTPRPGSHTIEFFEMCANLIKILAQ

[7] = molecular target: NUAK family SNF1-like kinase 1 (Homo sapiens) (UniProt O60285); settings: Compound concentration 1000.0 nM
NUAK family SNF1-like kinase 1 (Homo sapiens), sequence (O60285 whole entry): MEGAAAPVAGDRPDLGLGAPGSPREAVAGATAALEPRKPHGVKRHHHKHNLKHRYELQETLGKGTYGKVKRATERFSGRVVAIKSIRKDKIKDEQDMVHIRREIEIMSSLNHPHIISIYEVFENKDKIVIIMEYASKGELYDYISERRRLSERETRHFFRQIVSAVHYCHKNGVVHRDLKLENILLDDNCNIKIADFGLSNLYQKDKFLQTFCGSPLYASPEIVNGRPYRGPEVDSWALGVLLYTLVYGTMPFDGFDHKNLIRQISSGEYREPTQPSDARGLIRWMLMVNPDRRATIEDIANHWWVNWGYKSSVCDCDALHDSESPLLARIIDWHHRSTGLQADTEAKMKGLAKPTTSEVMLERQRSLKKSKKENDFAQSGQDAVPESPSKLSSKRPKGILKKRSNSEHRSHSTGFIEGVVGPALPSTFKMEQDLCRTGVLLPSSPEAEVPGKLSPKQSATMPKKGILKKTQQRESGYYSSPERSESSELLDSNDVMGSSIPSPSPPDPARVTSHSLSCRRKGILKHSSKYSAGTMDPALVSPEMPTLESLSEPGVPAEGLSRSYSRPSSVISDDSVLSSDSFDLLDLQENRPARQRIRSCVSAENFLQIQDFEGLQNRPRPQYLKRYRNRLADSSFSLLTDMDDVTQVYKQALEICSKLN

[8] = molecular target: Serine/threonine-protein kinase BRSK1 (Homo sapiens) (UniProt Q8TDC3); settings: Compound concentration 1000.0 nM
[9] = molecular target: Peripheral plasma membrane protein CASK (Homo sapiens) (UniProt O14936); settings: Compound concentration 1000.0 nM
Peripheral plasma membrane protein CASK (Homo sapiens), sequence (O14936 whole entry): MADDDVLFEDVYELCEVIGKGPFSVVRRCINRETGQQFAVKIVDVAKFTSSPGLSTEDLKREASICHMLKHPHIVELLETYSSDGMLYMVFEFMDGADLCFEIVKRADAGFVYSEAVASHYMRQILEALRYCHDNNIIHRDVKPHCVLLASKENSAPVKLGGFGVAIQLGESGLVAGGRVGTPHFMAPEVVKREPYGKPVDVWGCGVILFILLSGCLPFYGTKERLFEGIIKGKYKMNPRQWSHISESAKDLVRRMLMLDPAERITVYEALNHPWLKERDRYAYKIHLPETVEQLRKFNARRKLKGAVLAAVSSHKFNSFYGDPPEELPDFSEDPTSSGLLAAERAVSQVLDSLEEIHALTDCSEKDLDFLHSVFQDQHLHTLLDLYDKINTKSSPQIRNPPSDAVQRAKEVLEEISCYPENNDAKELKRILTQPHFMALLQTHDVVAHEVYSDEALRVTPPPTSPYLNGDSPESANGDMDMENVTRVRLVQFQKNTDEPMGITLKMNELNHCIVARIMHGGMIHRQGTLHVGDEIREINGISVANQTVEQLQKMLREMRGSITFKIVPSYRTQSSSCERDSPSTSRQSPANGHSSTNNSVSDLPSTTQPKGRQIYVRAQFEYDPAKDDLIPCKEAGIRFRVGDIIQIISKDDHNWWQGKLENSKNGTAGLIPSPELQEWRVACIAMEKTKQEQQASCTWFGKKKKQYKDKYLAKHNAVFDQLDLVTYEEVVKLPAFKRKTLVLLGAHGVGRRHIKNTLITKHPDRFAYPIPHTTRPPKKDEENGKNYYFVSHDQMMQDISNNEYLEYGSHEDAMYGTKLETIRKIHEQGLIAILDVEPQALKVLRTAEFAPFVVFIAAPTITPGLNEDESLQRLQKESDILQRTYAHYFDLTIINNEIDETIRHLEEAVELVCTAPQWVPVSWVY

[10] = molecular target: Cyclin-dependent kinase-like 2 (Homo sapiens) (UniProt Q92772); settings: Compound concentration 1000.0 nM
[11] = molecular target: Casein kinase I isoform gamma-3 (Homo sapiens) (UniProt Q9Y6M4); settings: Compound concentration 1000.0 nM
Casein kinase I isoform gamma-3 (Homo sapiens), sequence (Q9Y6M4 whole entry, looked up, canonical isoform): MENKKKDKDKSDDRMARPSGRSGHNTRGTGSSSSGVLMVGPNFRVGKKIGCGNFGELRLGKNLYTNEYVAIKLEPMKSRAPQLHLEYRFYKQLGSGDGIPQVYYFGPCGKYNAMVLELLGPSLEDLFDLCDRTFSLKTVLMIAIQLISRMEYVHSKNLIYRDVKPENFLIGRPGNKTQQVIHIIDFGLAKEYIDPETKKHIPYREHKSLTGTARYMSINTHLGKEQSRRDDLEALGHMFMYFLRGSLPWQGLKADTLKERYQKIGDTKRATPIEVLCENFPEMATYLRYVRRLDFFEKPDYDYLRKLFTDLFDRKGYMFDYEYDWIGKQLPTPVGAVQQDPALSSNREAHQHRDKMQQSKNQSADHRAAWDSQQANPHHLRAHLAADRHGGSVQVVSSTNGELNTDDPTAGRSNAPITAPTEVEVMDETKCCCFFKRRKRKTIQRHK

[12] = molecular target: Megakaryocyte-associated tyrosine-protein kinase (Homo sapiens) (UniProt P42679); settings: Compound concentration 1000.0 nM
[13] = molecular target: Mitogen-activated protein kinase 6 (Homo sapiens) (UniProt Q16659); settings: Compound concentration 1000.0 nM
[14] = molecular target: Fibroblast growth factor receptor 4 (Homo sapiens) (UniProt P22455); settings: Compound concentration 1000.0 nM
Fibroblast growth factor receptor 4 (Homo sapiens), sequence (P22455 22-802 limits assumed): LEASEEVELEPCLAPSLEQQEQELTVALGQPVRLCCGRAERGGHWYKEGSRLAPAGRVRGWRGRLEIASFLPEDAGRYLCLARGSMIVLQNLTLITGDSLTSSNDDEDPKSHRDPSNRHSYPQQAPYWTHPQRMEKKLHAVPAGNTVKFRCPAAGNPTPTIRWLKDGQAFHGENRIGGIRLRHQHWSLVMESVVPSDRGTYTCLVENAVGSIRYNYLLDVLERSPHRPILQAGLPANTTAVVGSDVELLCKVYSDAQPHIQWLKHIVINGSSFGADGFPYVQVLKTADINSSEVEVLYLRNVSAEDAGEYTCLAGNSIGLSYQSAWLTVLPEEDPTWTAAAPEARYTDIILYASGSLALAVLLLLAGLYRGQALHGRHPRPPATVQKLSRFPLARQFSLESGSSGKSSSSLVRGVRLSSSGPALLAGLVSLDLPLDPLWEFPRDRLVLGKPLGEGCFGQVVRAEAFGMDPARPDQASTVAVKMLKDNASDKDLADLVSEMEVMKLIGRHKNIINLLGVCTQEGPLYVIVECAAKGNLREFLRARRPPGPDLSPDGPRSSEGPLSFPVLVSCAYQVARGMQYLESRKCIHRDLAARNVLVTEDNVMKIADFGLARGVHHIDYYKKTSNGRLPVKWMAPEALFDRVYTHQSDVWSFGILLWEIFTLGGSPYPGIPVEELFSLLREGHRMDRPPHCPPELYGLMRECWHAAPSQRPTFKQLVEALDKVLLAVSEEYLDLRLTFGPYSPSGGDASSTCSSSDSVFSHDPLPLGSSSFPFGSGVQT

[15] = molecular target: G protein-coupled receptor kinase 3 (Homo sapiens) (UniProt P35626); settings: Compound concentration 1000.0 nM
[16] = molecular target: Homeodomain-interacting protein kinase 2 (Homo sapiens) (UniProt Q9H2X6); settings: Compound concentration 1000.0 nM
[17] = molecular target: Hormonally up-regulated neu tumor-associated kinase (Homo sapiens) (UniProt P57058); settings: Compound concentration 1000.0 nM
[18] = molecular target: Mast/stem cell growth factor receptor Kit (Homo sapiens) (UniProt P10721); settings: Compound concentration 1000.0 nM
[19] = system: Mast/stem cell growth factor receptor Kit (Homo sapiens), P10721 [V559D]; settings: Compound concentration 1000.0 nM
[20] = molecular target: Serine/threonine-protein kinase LATS2 (Homo sapiens) (UniProt Q9NRM7); settings: Compound concentration 1000.0 nM
[21] = molecular target: Serine/threonine-protein kinase STK11 (Homo sapiens) (UniProt Q15831); settings: Compound concentration 1000.0 nM
Serine/threonine-protein kinase STK11 (Homo sapiens), sequence (Q15831 whole entry): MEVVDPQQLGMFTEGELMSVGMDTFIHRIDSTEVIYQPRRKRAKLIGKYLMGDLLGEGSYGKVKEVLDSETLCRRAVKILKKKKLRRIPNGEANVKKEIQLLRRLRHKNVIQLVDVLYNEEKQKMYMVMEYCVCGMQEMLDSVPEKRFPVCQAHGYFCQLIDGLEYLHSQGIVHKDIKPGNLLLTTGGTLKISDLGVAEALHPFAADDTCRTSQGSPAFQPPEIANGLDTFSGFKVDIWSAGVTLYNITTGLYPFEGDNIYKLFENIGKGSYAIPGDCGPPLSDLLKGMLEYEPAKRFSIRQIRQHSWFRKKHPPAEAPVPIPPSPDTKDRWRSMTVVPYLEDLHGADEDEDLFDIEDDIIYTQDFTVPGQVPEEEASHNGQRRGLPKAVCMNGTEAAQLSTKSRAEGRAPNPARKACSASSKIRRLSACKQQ

[22] = molecular target: Serine/threonine-protein kinase MAK (Homo sapiens) (UniProt P20794); settings: Compound concentration 1000.0 nM
Serine/threonine-protein kinase MAK (Homo sapiens), sequence (P20794 whole entry): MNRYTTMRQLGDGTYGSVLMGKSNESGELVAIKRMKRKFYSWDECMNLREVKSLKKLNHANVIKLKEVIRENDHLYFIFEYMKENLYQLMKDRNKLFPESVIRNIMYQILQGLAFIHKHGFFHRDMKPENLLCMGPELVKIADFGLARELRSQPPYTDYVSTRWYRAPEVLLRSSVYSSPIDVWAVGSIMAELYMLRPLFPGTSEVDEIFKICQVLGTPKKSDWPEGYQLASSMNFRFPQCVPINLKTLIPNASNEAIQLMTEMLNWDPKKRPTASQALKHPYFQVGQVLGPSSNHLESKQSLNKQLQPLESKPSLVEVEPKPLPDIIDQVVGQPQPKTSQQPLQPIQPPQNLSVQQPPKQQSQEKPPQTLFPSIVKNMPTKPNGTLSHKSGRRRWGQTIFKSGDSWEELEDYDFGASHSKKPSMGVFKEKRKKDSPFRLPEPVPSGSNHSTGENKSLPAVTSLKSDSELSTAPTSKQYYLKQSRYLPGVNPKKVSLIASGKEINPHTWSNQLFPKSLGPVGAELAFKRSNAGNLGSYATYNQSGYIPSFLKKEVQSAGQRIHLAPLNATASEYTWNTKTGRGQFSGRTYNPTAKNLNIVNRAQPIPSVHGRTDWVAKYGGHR

[23] = molecular target: Mitogen-activated protein kinase kinase kinase 1 (Homo sapiens) (UniProt Q13233); settings: Compound concentration 1000.0 nM
[24] = molecular target: Mitogen-activated protein kinase kinase kinase 15 (Homo sapiens) (UniProt Q6ZN16); settings: Compound concentration 1000.0 nM
[25] = molecular target: Mitogen-activated protein kinase kinase kinase 3 (Homo sapiens) (UniProt Q99759); settings: Compound concentration 1000.0 nM
[26] = molecular target: Hepatocyte growth factor receptor (Homo sapiens) (UniProt P08581); settings: Compound concentration 1000.0 nM
[27] = molecular target: Serine/threonine-protein kinase MRCK beta (Homo sapiens) (UniProt Q9Y5S2); settings: Compound concentration 1000.0 nM
[28] = molecular target: Myosin-IIIa (Homo sapiens) (UniProt Q8NEV4); settings: Compound concentration 1000.0 nM
[29] = molecular target: Serine/threonine-protein kinase PAK 2 (Homo sapiens) (UniProt Q13177); settings: Compound concentration 1000.0 nM
[30] = molecular target: Serine/threonine-protein kinase PAK 3 (Homo sapiens) (UniProt O75914); settings: Compound concentration 1000.0 nM
[31] = molecular target: Serine/threonine-protein kinase PAK 6 (Homo sapiens) (UniProt Q9NQU5); settings: Compound concentration 1000.0 nM
[32] = molecular target: Cyclin-dependent kinase 2 homolog (Plasmodium falciparum (isolate 3D7)) (UniProt P61075); settings: Compound concentration 1000.0 nM
[33] = molecular target: Phosphatidylinositol 4,5-bisphosphate 3-kinase catalytic subunit beta isoform (Homo sapiens) (UniProt P42338); settings: Compound concentration 1000.0 nM
[34] = molecular target: Serine/threonine-protein kinase pim-1 (Homo sapiens) (UniProt P11309); settings: Compound concentration 1000.0 nM
[35] = molecular target: Serine/threonine-protein kinase N1 (Homo sapiens) (UniProt Q16512); settings: Compound concentration 1000.0 nM
[36] = molecular target: Serine/threonine-protein kinase N2 (Homo sapiens) (UniProt Q16513); settings: Compound concentration 1000.0 nM
[37] = molecular target: Serine/threonine-protein kinase PLK1 (Homo sapiens) (UniProt P53350); settings: Compound concentration 1000.0 nM
[38] = molecular target: Protein kinase C epsilon type (Homo sapiens) (UniProt Q02156); settings: Compound concentration 1000.0 nM
[39] = molecular target: Ribosomal protein S6 kinase alpha-2 (Homo sapiens) (UniProt Q15349); settings: Compound concentration 1000.0 nM
[40] = molecular target: STE20-like serine/threonine-protein kinase (Homo sapiens) (UniProt Q9H2G2); settings: Compound concentration 1000.0 nM
[41] = molecular target: Proto-oncogene tyrosine-protein kinase Src (Homo sapiens) (UniProt P12931); settings: Compound concentration 1000.0 nM
[42] = molecular target: SRSF protein kinase 3 (Homo sapiens) (UniProt Q9UPE1); settings: Compound concentration 1000.0 nM
SRSF protein kinase 3 (Homo sapiens), sequence (Q9UPE1 whole entry): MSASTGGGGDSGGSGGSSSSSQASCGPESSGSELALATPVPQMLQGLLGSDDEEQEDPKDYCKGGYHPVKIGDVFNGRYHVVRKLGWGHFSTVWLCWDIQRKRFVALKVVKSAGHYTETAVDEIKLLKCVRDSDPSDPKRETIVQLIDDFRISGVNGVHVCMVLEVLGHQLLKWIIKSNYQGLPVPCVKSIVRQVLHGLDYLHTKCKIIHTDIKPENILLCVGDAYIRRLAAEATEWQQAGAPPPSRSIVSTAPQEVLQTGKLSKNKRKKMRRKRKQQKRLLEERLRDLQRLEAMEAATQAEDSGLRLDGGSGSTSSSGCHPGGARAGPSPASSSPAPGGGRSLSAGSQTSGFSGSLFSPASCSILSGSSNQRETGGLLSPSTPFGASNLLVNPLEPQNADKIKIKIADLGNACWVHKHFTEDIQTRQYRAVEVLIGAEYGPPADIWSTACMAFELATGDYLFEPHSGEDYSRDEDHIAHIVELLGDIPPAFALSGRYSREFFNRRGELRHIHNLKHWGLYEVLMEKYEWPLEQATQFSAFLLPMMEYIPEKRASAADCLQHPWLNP

[43] = molecular target: Serine/threonine-protein kinase TNNI3K (Homo sapiens) (UniProt Q59H18); settings: Compound concentration 1000.0 nM
[44] = molecular target: Non-receptor tyrosine-protein kinase TYK2 (Homo sapiens) (UniProt P29597); settings: Compound concentration 1000.0 nM
[45] = molecular target: Alpha-1A adrenergic receptor (Homo sapiens) (UniProt P35348); settings: Compound concentration 10.0 uM

COc1cccc(CNC(=O)c2nc3scc(COCc4ccc(C(=O)O)cc4)c3c(=O)[nH]2)c1 [T-26c]
inactive: residual activity [1] 86.4% | residual activity [2] 84.4% | residual activity [3] 68.6% | residual activity [4] 93.8% | residual activity [5] 84.8% | residual activity [6] 70.3% | residual activity [7] 86.6% | residual activity [8] 100% | residual activity [9] 67.3% | residual activity [10] 66.8% | residual activity [11] 96.6% | residual activity [12] 97.8% | residual activity [13] 99.9% | residual activity [14] 91.4% | residual activity [15] 72.5% | residual activity [16] 72.9% | residual activity [17] 100% | residual activity [18] 93% | residual activity [19] 99.1% | residual activity [20] 86.2% | residual activity [21] 97.2% | residual activity [22] 100% | residual activity [23] 63.1% | residual activity [24] 100% | residual activity [25] 78.9% | residual activity [26] 100% | residual activity [27] 99.5% | residual activity [28] 88% | residual activity [29] 100% | residual activity [30] 51.9% | residual activity [31] 100% | residual activity [32] 72.5% | residual activity [33] 54.8% | residual activity [34] 100% | residual activity [35] 100% | residual activity [36] 98% | residual activity [37] 54.1% | residual activity [38] 62% | residual activity [39] 100% | residual activity [40] 100% | residual activity [41] 100% | residual activity [42] 70.1% | residual activity [43] 95.5% | residual activity [44] 95% | inhibition [45] -1.51%
